Test results published in ChEMBL document CHEMBL1201862, “PubChem BioAssay data set” (2004).
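48-hour exposure; five concentrations; linearly interpolated endpoints. The concentration for 50% growth inhibition is given as GI50.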 The source made the active and inactive calls. Rule as the data show it: active = GI50 up to about 1.1 µM and inactive = higher.

Key:
Test in all cases: NCI tumour cell line growth inhibition, 48 h
SF-539 = tested on: SF-539
DMS-273 = tested on: DMS-273
RXF 393 = tested on: RXF 393
HOP-92 = tested on: HOP-92
SK-MEL-5 = tested on: SK-MEL-5
SNB-75 = tested on: SNB-75
DLD-1 = tested on: DLD-1
SK-MEL-28 = tested on: SK-MEL-28
HL-60 = tested on: HL-60
TK-10 = tested on: TK-10
RPMI-8226 = tested on: RPMI-8226
U-251 = tested on: U-251
Malme-3M = tested on: Malme-3M
HCT-15 = tested on: HCT-15
HOP-18 = tested on: HOP-18
HT-29 = tested on: HT-29
OVCAR-8 = tested on: OVCAR-8
M14 = tested on: M14
KM12 = tested on: KM12
DMS-114 = tested on: DMS-114
RXF 631 = tested on: RXF 631
UACC-257 = tested on: UACC-257
SF-295 = tested on: SF-295
A549 = tested on: A549
K562 = tested on: K562
OVCAR-5 = tested on: OVCAR-5
SNB-78 = tested on: SNB-78
CAKI-1 = tested on: CAKI-1
HCT-116 = tested on: HCT-116
ACHN = tested on: ACHN
OVCAR-4 = tested on: OVCAR-4
A498 = tested on: A498
NCI-H522 = tested on: NCI-H522
MOLT-4 = tested on: MOLT-4
SNB-19 = tested on: SNB-19
NCI-H226 = tested on: NCI-H226
COLO 205 = tested on: COLO 205
SF-268 = tested on: SF-268
CCRF-CEM = tested on: CCRF-CEM
786-0 = tested on: 786-0
XF498 = tested on: XF498
OVCAR-3 = tested on: OVCAR-3
HOP-62 = tested on: HOP-62
SW-620 = tested on: SW-620
LXFL 529 = tested on: LXFL 529
IGROV-1 = tested on: IGROV-1
SN12C = tested on: SN12C
EKVX = tested on: EKVX
UACC-62 = tested on: UACC-62
KM-20L2 = tested on: KM-20L2
LOX IMVI = tested on: LOX IMVI
UO-31 = tested on: UO-31
NCI-H460 = tested on: NCI-H460

With `COc1cc(/C=C\c2ccncc2)cc(OC)c1OC` the GI50 (SF-539) was > 100 µM (inactive), the GI50 (DMS-273) was 63.8 µM (inactive) and the GI50 (RXF 393) was > 100 µM (inactive). For the same compound, the GI50 (HOP-92) was 36.5 µM (inactive), the GI50 (SK-MEL-5) was 57.5 µM (inactive) and the GI50 (SNB-75) was 37.8 µM (inactive). The GI50 (DLD-1) was > 100 µM (inactive), the GI50 (SK-MEL-28) was > 100 µM (inactive) and the GI50 (HL-60) was 24.1 µM (inactive). The GI50 (TK-10) was > 100 µM (inactive), the GI50 (RPMI-8226) was 38.3 µM (inactive) and the GI50 (U-251) was > 100 µM (inactive). The GI50 (Malme-3M) was > 100 µM (inactive), the GI50 (HCT-15) was 55.7 µM and the GI50 (HOP-18) was > 100 µM (inactive). For the same compound, the GI50 (HT-29) was 40.6 µM (inactive), the GI50 (OVCAR-8) was > 100 µM (inactive) and the GI50 (M14) was 42.9 µM (inactive). For the same compound, the GI50 (KM12) was 48.1 µM (inactive), the GI50 (DMS-114) was 57.3 µM (inactive) and the GI50 (RXF 631) was 64.7 µM (inactive). The GI50 (UACC-257) was > 100 µM (inactive), the GI50 (SF-295) was 54.3 µM (inactive) and the GI50 (A549) was 69 µM (inactive). The GI50 (K562) was 27.3 µM (inactive), the GI50 (OVCAR-5) was 63.5 µM (inactive) and the GI50 (SNB-78) was > 100 µM (inactive). For the same compound, the GI50 (CAKI-1) was 80 µM (inactive), the GI50 (HCT-116) was 99.1 µM (inactive) and the GI50 (ACHN) was > 100 µM (inactive). For the same compound, the GI50 (OVCAR-4) was > 100 µM (inactive), the GI50 (A498) was > 100 µM (inactive) and the GI50 (NCI-H522) was 43.3 µM (inactive). For the same compound, the GI50 (MOLT-4) was 59.4 µM (inactive), the GI50 (SNB-19) was > 100 µM (inactive) and the GI50 (NCI-H226) was > 100 µM (inactive). For the same compound, the GI50 (COLO 205) was 42.1 µM (inactive), the GI50 (SF-268) was > 100 µM (inactive) and the GI50 (CCRF-CEM) was > 100 µM (inactive). The GI50 (786-0) was > 100 µM (inactive), the GI50 (XF498) was 29.1 µM (inactive) and the GI50 (OVCAR-3) was > 100 µM (inactive). The GI50 (HOP-62) was > 100 µM (inactive), the GI50 (SW-620) was 43.2 µM (inactive) and the GI50 (LXFL 529) was 67.6 µM (inactive). For the same compound, the GI50 (IGROV-1) was > 100 µM (inactive), the GI50 (SN12C) was > 100 µM (inactive) and the GI50 (EKVX) was 70.8 µM (inactive). For the same compound, the GI50 (UACC-62) was 59.2 µM (inactive), the GI50 (KM-20L2) was 65.3 µM (inactive) and the GI50 (LOX IMVI) was 44.2 µM (inactive). For the same compound, the GI50 (UO-31) was 72.3 µM (inactive) and the GI50 (NCI-H460) was 46.6 µM (inactive).
